Test results taken from patent US20100292186A1, “Pharmaceutical Composition for Treatment or Prevention of Liver Cancer” (National University Corporation Nagoya University, priority 2006, published 2010).

Assays:
[1] = tested on: human hepatocellular cancer cell line (Hep-3B, Hep-G2, Huh-7 and Alexander); experiment: MTT assay, growth inhibition of hepatocellular cancer cell lines; assay type: cell-based
Protocol: Four species of human hepatocellular cancer cell line (Hep-3B. Hep-G2, Huh-7 and Alexander) were cultured under humidified atmosphere of 95% air and 5% carbon dioxide, in a Dulbecco Modified Eagle culture medium (DMEM: SIGMA CHEMICAL Co., St. Louis USA) supplemented with 10% fetal bovine serum (FBS), 100 U/ml penicillin G sulphate and 100 μg/ml streptomycin sulphate.
For lecithin (other name: phosphatidylcholine (hereinafter, referred to as simply “PC”), soybean lecithin with a purity of approximately 96.5% was used, and menatetrenone and Kaytwo N (Kaytwo N: registered trade mark; manufactured by Eisai Co. Ltd.) were provided by Eisai Co. Ltd. For the study, cells (Hep-G2: 1×10^4; others: 1×10^3) in a 96-well microtiter plate were cultured one day prior to beginning the experiments. In the MTT assay method, cells in 96-well microtiter were cultured several days (2 to 4 days) in the presence of PC (1×10^−8 to 1×10^−4M) and menatetrenone (1×10^−7 to 1×10^−4 M) or Kaytwo N (registered trade mark; manufactured by Eisai Co. Ltd.) (regarding menatetrenone: […] to 1×10^−4M). […] The survival rate was analyzed by the MTT assay method using the Tetra Color One Kit. […]
Significant differences were evaluated by the Mann-Whitney U test according to StatView 5.0 (Abacus Concepts, Berkley, Calif.). […]

[2] = tested on: human hepatocellular cancer cell lines (Hep-3B, Hep-G2, Huh-7 and the like); conditions: literature; cited from earlier work
hepatocellular cancer = conditions: administration after treatment of hepatocellular cancer; cited from earlier work
[3] = cited from earlier work

Compound: CC(C)=CCC/C(C)=C/CC/C(C)=C/CC/C(C)=C/CC1=C(C)C(=O)c2ccccc2C1=O [menatetrenone, 2-methyl-3-tetraprenyl-1,4-naphthoquinone]
- survival rate ([1]; MTT assay, PC 1×10^−8 to 1×10^−4 M, menatetrenone 1×10^−7 to 1×10^−4 M, culture 2 to 4 days, FIGS. 1A-1C): survival rate decreased in the presence menatetrenone depending on the quantity added
- multiplication of human hepatocellular cancer cell lines ([1]; each substance alone): demonstrated an inhibitory effect
- growth of human hepatocellular cancer cell lines [2]: inhibitory effect
- occurrence of PVI (portal venous invasion) (hepatocellular cancer): could be suppressed
- prognosis / recurrence of hepatocellular cancer (hepatocellular cancer): prognosis could be improved by suppressing the recurrence of hepatocellular cancer
- solubility in water [3]: almost insoluble in water
